Measured values from ChEMBL document CHEMBL1833927, “Constructing transferrin receptor targeted drug delivery system by using doxorubicin hydrochloride and vanadocene dichloride” (Bioorg Med Chem Lett, 2011).

What was measured:
[1] = target: Serotransferrin (Homo sapiens) (UniProt P02787); experiment: Binding affinity to human apo transferrin after 12 hrs at pH 7.4 by spectrofluorometer method
[2] = target: Serotransferrin (Homo sapiens) (UniProt P02787); experiment: Binding affinity to human serum transferrin after 12 hrs at pH 4.8 by spectrofluorometer method
[3] = system: A549; experiment: Antiproliferative activity against human A549 cells by MTT assay; assay type: functional, cell-based
[4] = target: Serotransferrin (Homo sapiens) (UniProt P02787); experiment: Binding affinity to human serum transferrin after 12 hrs at pH 7.4 by spectrofluorometer method
[5] = target: Serotransferrin (Homo sapiens) (UniProt P02787); experiment: Binding affinity to human apo transferrin after 12 hrs at pH 4.8 by spectrofluorometer method
[6] = system: A549; experiment: Antiproliferative activity against human A549 cells by MTT assay in presence of human serum transferrin/apo transferrin; assay type: functional, cell-based

Sequence of Serotransferrin (Homo sapiens) (P02787 whole entry): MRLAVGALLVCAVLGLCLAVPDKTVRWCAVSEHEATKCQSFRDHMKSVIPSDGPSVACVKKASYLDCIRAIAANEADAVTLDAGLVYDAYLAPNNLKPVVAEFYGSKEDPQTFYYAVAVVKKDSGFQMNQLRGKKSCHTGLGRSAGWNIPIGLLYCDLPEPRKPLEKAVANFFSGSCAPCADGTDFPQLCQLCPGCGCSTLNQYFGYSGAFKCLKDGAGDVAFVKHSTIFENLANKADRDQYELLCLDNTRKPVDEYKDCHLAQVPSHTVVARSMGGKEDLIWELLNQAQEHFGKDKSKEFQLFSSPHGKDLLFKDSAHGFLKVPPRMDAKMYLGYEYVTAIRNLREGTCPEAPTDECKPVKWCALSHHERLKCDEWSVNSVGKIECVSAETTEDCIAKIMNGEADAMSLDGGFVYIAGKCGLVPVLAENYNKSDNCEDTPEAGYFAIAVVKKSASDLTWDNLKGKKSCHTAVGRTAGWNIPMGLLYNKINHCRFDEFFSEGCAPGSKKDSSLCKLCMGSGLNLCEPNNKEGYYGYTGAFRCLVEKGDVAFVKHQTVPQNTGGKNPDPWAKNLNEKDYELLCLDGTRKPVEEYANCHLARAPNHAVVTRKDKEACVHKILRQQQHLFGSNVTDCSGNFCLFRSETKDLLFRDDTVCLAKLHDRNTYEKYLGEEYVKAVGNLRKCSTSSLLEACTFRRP

## COc1cccc2c1C(=O)c1c(O)c3c(c(O)c1C2=O)C[C@@](O)(C(=O)CO)C[C@@H]3O[C@H]1C[C@H](N)[C@H](O)[C@H](C)O1
[1]
  Ka: 74500 M⁻¹
[2]
  Ka: 41900 M⁻¹
[3]
  Activity: Dose-dependent effect
[4]
  Ka: 32600 M⁻¹
[5]
  Ka: 271000 M⁻¹
[6]
  Activity: Dose-dependent effect
